Among the data in PubChem BioAssay (NCI) are GI50 and TGI values, retold here.

Some test systems named below: A498 renal; HOP-62 NSCLC; IGROV1 ovarian; MDA-MB-231 breast; MOLT-4 leukemia; NCI/ADR-RES ovarian; SK-MEL-5 melanoma; TK-10 renal; UO-31 renal; CCRF-CEM leukemia.
Assay in all cases: NCI tumour cell line growth inhibition, 48 h

Structures are written as SMILES. Values joined by “and” are separate entries in the source; they are usually repeats but may differ in a detail not shown here. Equal values may be shown once.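 A five-concentration, 48-hour dose response in 96-well plates underlies each endpoint, interpolated linearly between surrounding concentrations. Abbreviation: GI50, concentration required for 50% inhibition of growth. TGI is the concentration that stops growth completely.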

As for `O=C1N=C(Nc2nc(-c3csc(NC4=NC(=O)/C(=C\c5ccccc5)S4)n3)cs2)S/C1=C/c1ccccc1`, the GI50 with A498 renal was greater than 50 µM; with HOP-62 NSCLC, 7.97 µM; with IGROV1 ovarian it was 36.6 µM; in the experiment on MDA-MB-231 breast it was 4.78 µM; in the experiment with MOLT-4 leukemia it was 3.02 µM; in the experiment with NCI/ADR-RES ovarian, 15.9 µM. For the same molecule, the GI50 in the experiment on SK-MEL-5 melanoma was 5.87 µM; with TK-10 renal, 10.1 µM; with UO-31 renal, 17.5 µM. Also, the TGI in the experiment with A498 renal is greater than 50 µM; in the experiment on HOP-62 NSCLC, 46.3 µM; with IGROV1 ovarian it was greater than 50 µM; with MDA-MB-231 breast, 18.8 µM; with MOLT-4 leukemia, greater than 50 µM; with NCI/ADR-RES ovarian, greater than 50 µM. In addition, the TGI was 33.4 µM in the experiment on SK-MEL-5 melanoma, 33.3 µM in the experiment with TK-10 renal and greater than 50 µM in the experiment on UO-31 renal.
Take `C/C=C(\C)C(=O)OC1/C=C(\C)CC/C=C(\C)CC2OC(=O)C(C)(OC(C)=O)C12` (stereo unspecified): the TGI with A498 renal, in the experiment on CCRF-CEM leukemia, in the experiment with HOP-62 NSCLC, in the experiment with IGROV1 ovarian, in the experiment with MDA-MB-231 breast and in the experiment with MOLT-4 leukemia was greater than 100 µM in each case. Besides, the TGI in the experiment on NCI/ADR-RES ovarian, in the experiment on SK-MEL-5 melanoma and in the experiment with TK-10 renal was greater than 100 µM throughout.
In the case of `C[C@]12C[C@H](O)[C@H]3[C@@H](CCC4=CC(=O)CC[C@@]43C)[C@@H]1CC[C@@H]2c1csc(-c2ccccc2)n1`, the TGI is greater than 100 µM in the experiment on A498 renal; greater than 51.3 µM in the experiment on HOP-62 NSCLC; greater than 100 µM with IGROV1 ovarian; greater than 77.8 µM with MDA-MB-231 breast; greater than 100 µM in the experiment on NCI/ADR-RES ovarian; greater than 100 µM in the experiment on TK-10 renal. In addition, the TGI in the experiment on UO-31 renal was greater than 46.2 µM.
For the molecule `N#CC1=C(N)NC(=O)NC12Nc1ccccc1N2`, the GI50 in the experiment on A498 renal, in the experiment on HOP-62 NSCLC, in the experiment with IGROV1 ovarian, in the experiment on MDA-MB-231 breast, in the experiment with MOLT-4 leukemia and in the experiment with NCI/ADR-RES ovarian was greater than 100 µM each time. Also, the GI50 in the experiment with SK-MEL-5 melanoma and in the experiment on TK-10 renal was greater than 100 µM throughout. Besides, the TGI with A498 renal, with HOP-62 NSCLC, in the experiment with IGROV1 ovarian, in the experiment on MDA-MB-231 breast, with MOLT-4 leukemia and in the experiment with NCI/ADR-RES ovarian was greater than 100 µM throughout. Moreover, the TGI in the experiment on SK-MEL-5 melanoma and with TK-10 renal was greater than 100 µM in each case.
On to `Nc1ccc(/C=C/c2ccc3cccnc3c2)cc1`, for which the TGI in the experiment on A498 renal, in the experiment on CCRF-CEM leukemia, in the experiment with HOP-62 NSCLC, in the experiment with MDA-MB-231 breast, in the experiment with MOLT-4 leukemia and in the experiment with NCI/ADR-RES ovarian was greater than 100 µM each time. For the same molecule, the TGI in the experiment on SK-MEL-5 melanoma, in the experiment with TK-10 renal and in the experiment on UO-31 renal was greater than 100 µM in each case.
Take `CC1=NOC(=O)/C1=C/c1ccc2c(c1)OCO2`: the TGI with A498 renal is 62.3 µM; in the experiment with CCRF-CEM leukemia, 67.5 µM; in the experiment on HOP-62 NSCLC it was 40.9 µM; with IGROV1 ovarian it was 78.5 µM; with MDA-MB-231 breast, 53.9 µM; with NCI/ADR-RES ovarian, greater than 100 µM. Besides, the TGI in the experiment on SK-MEL-5 melanoma was greater than 100 µM; in the experiment with TK-10 renal, greater than 100 µM; in the experiment with UO-31 renal it was 38.9 µM.
With `CO/N=C(\COc1ccc2oc(-c3ccccc3)cc(=O)c2c1)c1ccc(F)cc1`, the GI50 in the experiment on A498 renal is 29.1 µM; in the experiment with CCRF-CEM leukemia it was greater than 100 µM; in the experiment on HOP-62 NSCLC, 18.6 µM; with IGROV1 ovarian it was 15.2 µM; in the experiment on MDA-MB-231 breast, 18.7 µM; in the experiment on NCI/ADR-RES ovarian, 21 µM. Besides, the values for the GI50 in the experiment on SK-MEL-5 melanoma, in the experiment on TK-10 renal and with UO-31 renal were 31.3 µM, 22.9 µM and 18.1 µM, respectively. Moreover, the TGI in the experiment on A498 renal is 82.9 µM; with CCRF-CEM leukemia, greater than 100 µM; with HOP-62 NSCLC, 35.2 µM; in the experiment with IGROV1 ovarian, 35.9 µM; in the experiment with MDA-MB-231 breast, 39 µM; in the experiment with NCI/ADR-RES ovarian it was 49.9 µM. Moreover, the TGI in the experiment with SK-MEL-5 melanoma was determined as 93.5 µM; in the experiment with TK-10 renal, 53 µM; in the experiment on UO-31 renal, 42.1 µM.
`COC(=O)[C@H](Cc1cn(C)cn1)NC(=O)[C@H](Cc1ccccc1)NC(=O)Nc1cc(C(F)(F)F)cc(C(F)(F)F)c1`: the GI50 in the experiment with A498 renal was 15.8 µM; in the experiment with CCRF-CEM leukemia, 3.9 µM and 8.86 µM; in the experiment on HOP-62 NSCLC, 17.5 µM; in the experiment with IGROV1 ovarian, 18.5 µM; in the experiment with MDA-MB-231 breast, 5.03 µM and 7.85 µM; in the experiment with MOLT-4 leukemia it was 5.87 µM and 11.4 µM. In addition, the GI50 in the experiment on NCI/ADR-RES ovarian is 23.9 µM; in the experiment on SK-MEL-5 melanoma, 16.2 µM; with UO-31 renal, 16.6 µM. Further, the TGI in the experiment on A498 renal stood at 30.1 µM; in the experiment on CCRF-CEM leukemia, 24.8 µM; in the experiment on HOP-62 NSCLC, 31.9 µM; with IGROV1 ovarian, 37.2 µM; in the experiment with MDA-MB-231 breast, 21.2 µM; with MOLT-4 leukemia, 28.9 µM. The TGI with NCI/ADR-RES ovarian was found to be 61.4 µM; with SK-MEL-5 melanoma it was 30.7 µM; in the experiment on UO-31 renal, 30.5 µM.
Regarding `CCOC(=O)/C=C/c1cccc(F)c1`, the TGI in the experiment with A498 renal, with CCRF-CEM leukemia, in the experiment with HOP-62 NSCLC, in the experiment on IGROV1 ovarian, in the experiment on MDA-MB-231 breast and in the experiment on MOLT-4 leukemia was greater than 100 µM in each case. For the same molecule, the TGI in the experiment with NCI/ADR-RES ovarian, in the experiment with TK-10 renal and in the experiment with UO-31 renal was greater than 100 µM throughout.
`COc1ccc2nc3cc(Cl)ccc3c(Nc3cc(CN4CCCC4)c(O)c(CN4CCCC4)c3)c2n1`: the GI50 with CCRF-CEM leukemia is 1.12 µM; with HOP-62 NSCLC, 1.38 µM; with IGROV1 ovarian it was 2.51 µM; in the experiment with MDA-MB-231 breast, 1.86 µM; in the experiment with MOLT-4 leukemia, 0.41 µM; in the experiment on NCI/ADR-RES ovarian it was 1.64 µM. The GI50 in the experiment on SK-MEL-5 melanoma is 1.56 µM; in the experiment on TK-10 renal, 5.69 µM; with UO-31 renal it was 1.44 µM. Further, the TGI was 4.03 µM in the experiment with CCRF-CEM leukemia; 4.91 µM in the experiment on HOP-62 NSCLC; 13.6 µM with IGROV1 ovarian; 8.17 µM in the experiment on MDA-MB-231 breast; 2.51 µM in the experiment on MOLT-4 leukemia; 6.51 µM in the experiment with NCI/ADR-RES ovarian. Besides, the TGI in the experiment on SK-MEL-5 melanoma turned out to be 2.9 µM; in the experiment with TK-10 renal it was 66.3 µM; with UO-31 renal, 12.7 µM.
